Measurements: patent US9751850B2, “TRPA1 antagonists” (AbbVie Inc., priority 2008, dated 2017)

Molecular target: Human TRPA1 (Homo sapiens (Human), UniProt O75762)
Test: FLIPR based intracellular Ca2+ assay and membrane potential assay, AITC-activated TRPA1
Format: cell-based
Conditions: hTRPA1 transiently expressed in HEK293-F cells, AITC as agonist
Description: Molecular biology and transient expression were performed as described in Chen, J. et al., Journal of Biomolecular Screening 2007, 12, 61-69. Briefly, TRPA1 full length cDNA was amplified from human dorsal root ganglia total RNA (BD Bioscience Clontech, Palo Alto, Calif., USA) and was cloned into pcDNA3.1/V5-His Topo vector (Invitrogen, Carlsbad, Calif.). Large scale transient transfection was performed using the FreeStyle™ 293 Expression System as recommended by the manufacturer (Invitrogen). HEK293-F cells were grown in suspension in flasks (cell volume 30 ml, to 1 liter) or in a Wave Bioreactor (Wave Biotech, Somerset, N.J. (6 liters). To support high density, suspension culture and transfection, cells were cultured in Free Style 293 media, an optimized, serum free formulation. 293fectin™ (Invitrogen) was used as transfection reagent. In a transfection of 3×10^7 cells (30 mL volume), 30 μg of plasmid DNA and 40 μL 293 fectin were used. For a larger volume transfection, each reagent was scaled up proportionally. Two days post-transfection, cells were harvested by centrifugation (1000×g, 5 minutes) and resuspended to a density of 1.5×10^7 cells/mL in freezing medium (Freestyle media/10% serum/10% DMSO). Cells were transferred into cryovials in 2 mL aliquots, and these vials were placed in Nalgene Mr. Frosty slow-freeze devices (Sigma-Aldrich, St. Louis, Mo.) at −80° C. As needed, vials were removed from −80° C. and quickly thawed in a 37° C. water bath. Cells were aseptically transferred into conical tubes containing Freestyle media (10 mL/vial). After centrifugation at 1,000×g for 3-5 minutes, medium was removed by aspiration and cells were resuspended in Freestyle medium at desired densities (typically 1×10^6 cells/mL). Re-suspended cells were seeded into black-walled clear-bottom 96-well Biocoat™ poly-D-lysine assay plated (BD Biosciences, Bedford, Mass.) (10^5 cells/well) and incubated overnight at 37° C. under a humidified 5% CO2 atmosphere.
Ca^2+ influx was measured using a FLIPR calcium assay kit (R8033; Molecular Devices, Sunnyvale, Calif.). The Ca^2+ indicator dye was dissolved in Hanks' balanced salt solution supplemented with 20 mM HEPES buffer (HBSS/HEPES) according to the manufacturer instructions. Prior to start of the assay, the medium was removed by aspiration, and cells were loaded with 100 μL Ca^2+ dye for 2 to 3 hours at room temperature. AITC (allyl isothiocyanate) was used to activate and open the channels. (4×) solutions of the test compounds were prepared in HBSS/HEPES, and 50 μL were added to the cells at a delivery rate of 10 μL/sec. Changes in fluorescene were measured over time in a fluorometric imaging plate reader (FLIPR), Molecular Devices). Two additions were made over the course of an experimental run. For agonist experiments, assay buffer was added at the 10 s time point, followed by addition of agonist at the 3 minute 10 sec time point. For antagonist experiments, the antagonist was added at the 10 sec time point, followed by addition of the agonist 3 minutes later. Final assay volume for both the agonist and antagonist experiments was 200 μL. Total length of an experimental run was 6.5 minutes.
Data was analyzed with GraphPad Prism® software (GraphPad Software, San Diego, Calif.), using a four-parameter logistic Hill equation to curve-fit concentration-effect data and derive EC50 or IC50 values. Numerical values are reported as mean±SEM (n=number of experiments). SEM is calculated by dividing the standard deviation by the square root of the sample size […].
Changes in membrane potential were measured in hTRPA1-expressing LSTT cells using a FLIJPR membrane potential assay kit (R8034, Molecular Devices). The procedure for thawing and plating the LSTT cells was identical to the Ca^2+ influx assay (see above). […]

Human TRPA1, sequence (O75762 whole entry): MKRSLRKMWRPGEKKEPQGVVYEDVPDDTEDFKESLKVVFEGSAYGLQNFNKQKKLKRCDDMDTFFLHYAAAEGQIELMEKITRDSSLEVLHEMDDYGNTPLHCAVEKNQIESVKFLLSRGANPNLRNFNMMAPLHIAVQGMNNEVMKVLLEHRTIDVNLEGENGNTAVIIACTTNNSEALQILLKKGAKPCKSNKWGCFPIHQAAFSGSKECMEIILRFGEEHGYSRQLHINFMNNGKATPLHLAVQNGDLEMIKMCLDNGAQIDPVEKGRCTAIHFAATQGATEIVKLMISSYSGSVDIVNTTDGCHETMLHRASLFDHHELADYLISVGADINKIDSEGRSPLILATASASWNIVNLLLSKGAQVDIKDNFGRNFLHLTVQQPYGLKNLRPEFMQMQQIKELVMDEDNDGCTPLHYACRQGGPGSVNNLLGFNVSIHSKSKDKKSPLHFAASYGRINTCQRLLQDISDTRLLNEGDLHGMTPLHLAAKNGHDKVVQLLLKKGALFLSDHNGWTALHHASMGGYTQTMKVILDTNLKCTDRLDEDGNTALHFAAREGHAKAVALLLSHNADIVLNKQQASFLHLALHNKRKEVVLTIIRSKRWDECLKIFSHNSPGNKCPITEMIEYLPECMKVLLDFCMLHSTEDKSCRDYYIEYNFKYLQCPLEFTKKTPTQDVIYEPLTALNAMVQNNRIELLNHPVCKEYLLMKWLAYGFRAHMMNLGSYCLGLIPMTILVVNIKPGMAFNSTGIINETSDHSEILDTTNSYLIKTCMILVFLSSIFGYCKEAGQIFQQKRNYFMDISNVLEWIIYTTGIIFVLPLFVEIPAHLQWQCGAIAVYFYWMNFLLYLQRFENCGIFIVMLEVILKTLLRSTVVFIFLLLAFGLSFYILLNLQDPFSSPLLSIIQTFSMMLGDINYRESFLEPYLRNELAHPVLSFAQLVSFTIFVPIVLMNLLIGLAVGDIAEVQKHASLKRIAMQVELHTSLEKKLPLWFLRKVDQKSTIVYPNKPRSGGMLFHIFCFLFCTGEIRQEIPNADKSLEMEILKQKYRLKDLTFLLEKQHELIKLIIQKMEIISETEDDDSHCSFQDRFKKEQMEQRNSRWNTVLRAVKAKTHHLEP

SMILES | IC50
CCC(=N\O)/C(C)=C/c1ccc(F)nc1 [Example 1, (1E,3E)-1-(6-fluoropyridin-3-yl)-2-methylpent-1-en-3-one oxime] | 1.25 µM
CCC(=N\O)/C(C)=C/c1cccs1 [Example 2, (1E,3E)-2-methyl-1-thien-2-ylpent-1-en-3-one oxime] | 11 µM
CCC(=N\O)/C(C)=C/c1ccc(OC)nc1 [Example 3, (1E,3E)-1-(6-methoxypyridin-3-yl)-2-methylpent-1-en-3-one oxime] | 23.4 µM
CCC(=N\O)/C(C)=C/c1ccsc1 [Example 4, (1E,3E)-2-methyl-1-thien-3-ylpent-1-en-3-one oxime] | 1.32 µM
CCC(=N\O)/C(C)=C/c1cccnc1 [Example 5, (1E,3E)-2-methyl-1-pyridin-3-ylpent-1-en-3-one oxime] | 17 µM
CCC(=N\O)/C(C)=C/c1ccncc1 [Example 6, (1E,3E)-2-methyl-1-pyridin-4-ylpent-1-en-3-one oxime] | 8.61 µM
CCC(=N\O)/C(C)=C/c1ccc(C)nc1 [Example 7, (1E,3E)-2-methyl-1-(6-methylpyridin-3-yl)pent-1-en-3-one oxime] | > 100 µM
CCC(=N\O)/C(C)=C/c1cnc2ccccc2c1 [Example 8, (1E,3E)-2-methyl-1-quinolin-3-ylpent-1-en-3-one oxime] | > 100 µM
CCC(=N\O)/C(C)=C/c1cnccc1C [Example 9, (1E,3E)-2-methyl-1-(4-methylpyridin-3-yl)pent-1-en-3-one oxime] | > 100 µM
CCC(=N\O)/C(C)=C/c1ccc(C(F)(F)F)nc1 [Example 10, (1E,3E)-2-methyl-1-[6-(trifluoromethyl)pyridin-3-yl]pent-1-en-3-one oxime] | > 100 µM
CCC(=N\O)/C(C)=C/c1cncc2ccccc12 [Example 11, (1E,3E)-1-(isoquinolin-4-yl)-2-methylpent-1-en-3-one oxime] | > 100 µM
